According to patent US12532882B2, “Biocide composition and methods of use” (priority 2017, dated 2026):

How the values were obtained:
[1] = test system: seeds; test: Seed germination in soils saturated with product; conditions: soils saturated with 2% solution
[2] = test system: clubroot spores; test: Clubroot resting spore mortality by Evans blue staining (Example 2); conditions: positive control, 2% concentration
[3] = test system: clubroot resting spores; test: Clubroot resting spore mortality by Evans blue staining, separate test with AES-100; conditions: all concentrations above 1.5%
[4] = test system: clubroot resting spores; test: Clubroot resting spore mortality by Evans blue staining (Example 5); conditions: all concentrations above 1.5%

## OCl [sodium hypochlorite]
[1]
  seed germination: no seeds germinated
[2]
  resting spore mortality: 100%
[3]
  mortality of clubroot resting spores: 100%
[4]
  mortality of clubroot resting spores: 100%
